Laboratory results reported in US20160038521A1, “THERAPEUTIC METHODS” (UNIVERSITY OF IOWA RESEARCH FOUNDATION, priority 2013, published 2016).
Entries after “also recorded” stand apart in the source; their conditions may differ.

Assays:
[1] = tested on: CLN3-null JNCL mouse brain endothelial cells; assay: Scratch wound cell migration, live cell microscopy; format: cell-based; conditions: CLN3−/− MBEC, CBX vs mock, overnight
Procedure: FIG. 4. Carbenoxolone normalizes migration of CLN3-null JNCL mouse brain endothelial cells. Cell migration induced by a scratch in cell monolayers was measured using live cell microscopy and quantified by T-Scratch software. CLN3-expressing (CLN3-R) and CLN3-null (CLN3-/-) MBEC were grown to confluence. A gap in the monolayer was made by “[…] wound”, and the rate of cell migration to fill in the gap was monitored by live cell microscopy. CLN3-/- MBEC show a delayed ability to fill in the gap. Carbenoxolone treatment corrects this defect. Cells were either treated with CBX or left untreated (mock) in the presence or absence of CBX. Data are collected overnight. Data represent the mean of three independent experiments, error bars±SEM (2-way ANOVA with Bonferroni post-hoc correction, *, p<0.05).

Cln3−/− MBECs = assay: Fluid-phase endocytosis, uptake of fluorescent dextran; format: cell-based, mouse; conditions: 25 μM CBX for 30 minutes
Procedure: FIG. 5. Correction of fluid-phase endocytosis by CBX. Hoechst 33342 to label DNA (blue) and saline (mock) or 25 μM CBX was added to cell culture media for 30 minutes. Fluid-phase endocytic uptake in the presence of CBX or PBS was determined by uptake of fluorescent dextran (green). Extracellular dextran was quenched by Red-40 and cells were imaged by epifluorescence. ImageJ was used to calculate fluorescence intensity. Data represent the mean of three independent experiments, error bars±SEM (1-way ANOVA with TUKEY post-hoc, ***, p<0.0001). Scale bar=10 μm.

caveolin-1 = assay: Caveolin-1 transport to the cell membrane, immunofluorescence; format: cell-based, mouse; conditions: CLN3−/− MBEC, 25 μM for 2 h
Procedure: FIG. 6. Carbenoxolone restores caveolin-1 transport to the cell membrane in CLN3-null JNCL mouse brain endothelial cells. CLN3-expressing (CLN3-R) and CLN3-null (CLN3−/−) MBEC were untreated or cultured with 25 μM carbenoxolone for 2 h, then immunofluorescently stained for caveolin-1. Without treatment, caveolin-1 transport to the plasma membrane is impaired in CLN3−/− MBEC. Carbenoxolone restores normal caveolin-1 trafficking to the plasma membrane.

[2] = Leshchenko et al., 2006; cited from earlier work
Cln3−/− mice = assay: Autofluorescent inclusions in cingulate cortex brain sections; format: in vivo, mouse; conditions: gavage 20 mg/kg daily for two weeks, p<0.05
Excerpt: FIG. 11: CBX treatment reduces Cln3^−/− autofluorescent inclusions. Thin (50 μm) brain sections from mice treated as in were imaged under low magnification in the red channel to detect autofluorescence. Four images were taken of each cingulate cortex, and fluorescence intensity averaged in ImageJ. Data represent a minimum of 4 mice per group. Error bars±SEM (1-way ANOVA with TUKEY post-hoc, *, p<0.05) Scale bar=200 μm.

Cdc42 = Cdc42 activity (Cdc42-GTP levels) in mouse brain endothelial cells; format: cell-based; conditions: for Cdc42 activity: CLN3−/− MBEC, p<0.05
Excerpt: FIGS. 2A and 2B. Carbenoxolone reduces Cdc42 activity in CLN3-null JNCL mouse brain endothelial cells (MBEC). […] FIG. 3: CBX corrects Cdc42-GTP levels. […] Data represent the mean of three independent experiments, error bars±SEM (1-way ANOVA with TUKEY post-hoc, (*, p<0.05, n.s.=not significant).

[3] = tested on: plasma membrane cholesterol; assay: Cholesterol distribution at the plasma membrane, Amplex Red Cholesterol assay; format: cell-based, mouse; conditions: CBX 25 μM for 2 hours vs mock
Procedure: Plasma membranes are detergent-free fractionated and cholesterol levels in each fraction are quantified by the Amplex Red® Cholesterol assay kit. A representative experiment from four independent experiments is shown with CBX 25 μM for 2 hours or mock treatment.

SMILES: CC1(C)[C@@H](OC(=O)CCC(=O)O)CC[C@]2(C)[C@H]3C(=O)C=C4[C@@H]5C[C@@](C)(C(=O)O)CC[C@]5(C)CC[C@@]4(C)[C@]3(C)CC[C@@H]12 [CBX, carbenoxolone]
- Cell migration (rate of filling scratch gap) [1]: increases cell migration
- Cell migration (rate of filling scratch gap) ([1]; listed as Carbenoxolone): normalizes
- Fluid-phase endocytosis (fluorescent dextran uptake) (Cln3−/− MBECs): Correction; also recorded: increases fluid-phase endocytosis
- Caveolin-1 transport to the plasma membrane (caveolin-1): restores
- Ability to pass the blood-brain barrier (BBB) [2]: little or no ability
- Autofluorescent inclusions (fluorescence intensity, cingulate cortex) (Cln3−/− mice): reduces
- Cdc42 activity level (Cdc42; CLN3-R (CLN3-expressing) MBEC, CBX 50 μM for 2 h): does not alter
- Cdc42 activity (Cdc42; CBX 50 μM for 2 h): effectively normalized
- Cdc42 activity (Cdc42; CBX 50 μM for 2 h, listed as Carbenoxolone): significantly reduces
- Cdc42-GTP levels (Cdc42; Cln3−/− MBECs, CBX 25 μM for 2 hours vs saline (mock)): corrects; also recorded: reduces
- Cholesterol distribution at the plasma membrane [3]: corrects cholesterol distribution
